# Several values for one entry are separate records, joined by “and”; a condition that tells them apart may be missing. Identical values can stand only once.
# Tested on: thromboxane analog U46619 induced PAH in minipigs
# Assay: Haemodynamics (PAP, BP) in the anesthetized thromboxane challenged PAH minipig after inhaled (nebulized) application (C-2.1)
# Format: in vivo, Göttingen minipig
# Settings: for % changes in BP vs baseline / % changes in PAP vs baseline: inhaled 30 μg/kg
# Summary of the method: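 Anesthetized, ventilated Göttingen minipigs (2-6 kg) given continuous infusion (0.3-0.75 μg/kg/min) to raise mean PAP above 25 mmHg, dosing starting after a 30 min plateau. Compound in 1% DMSO/0.2% citric acid, pH 8, nebulized via Aeroneb Pro into the inspiratory arm (~7 min; stock 300 μg/kg). PAP by Swan-Ganz catheter, BP via carotid catheter.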
smiles,measurement,setting,value
"O=C(O)CCCCN(CCc1cc(F)ccc1OCc1ccc(-c2nc3cc(Cl)ccc3o2)cc1)C1CCCc2nc(C(=O)O)ccc21 (single isomer, unassigned) [comparative example 3, (5)-{(4-carboxybutyl)[2-(2-{[4-(5-chloro-1,3-benzoxazol-2-yl)benzyl]oxy}-5-fluorophenyl)ethyl]amino}-5,6,7,8-tetrahydroquinoline-2-carboxylic acid]",time of maximum effect on PAP,"after inhaled application (nebulization), comparative example 11 30 μg/kg, Cinaciguat 3 and 10 μg/kg, Riociguat 100 μg/kg, comparative example 3 30 μg/kg",30 min
same,duration of action (PAP decrease),"after inhaled application (nebulization), comparative example 11 30 μg/kg, Cinaciguat 3 and 10 μg/kg, Riociguat 100 μg/kg, comparative example 3 30 μg/kg, observation interval 240 min",120 min
same,% changes in BP vs baseline,0 min vs. start inhalation,100% and 99%
same,% changes in PAP vs baseline,0 min vs. start inhalation,100% and 99%
same,% changes in BP vs baseline,10 min vs. start inhalation,98% and 93%
same,% changes in PAP vs baseline,10 min vs. start inhalation,103% and 99%
same,% changes in BP vs baseline,20 min vs. start inhalation,94% and 87%
same,% changes in PAP vs baseline,20 min vs. start inhalation,103% and 97%
same,% changes in BP vs baseline,30 min vs. start inhalation,95% and 84%
same,% changes in PAP vs baseline,30 min vs. start inhalation,104% and 98%
same,% changes in BP vs baseline,40 min vs. start inhalation,97% and 81%
same,% changes in PAP vs baseline,40 min vs. start inhalation,105% and 95%
same,% changes in BP vs baseline,50 min vs. start inhalation,98% and 86%
same,% changes in PAP vs baseline,50 min vs. start inhalation,106% and 95%
same,% changes in BP vs baseline,60 min vs. start inhalation,101% and 88%
same,% changes in PAP vs baseline,60 min vs. start inhalation,108% and 94%
same,% changes in BP vs baseline,70 min vs. start inhalation,103% and 88%
same,% changes in PAP vs baseline,70 min vs. start inhalation,108% and 93%
same,% changes in BP vs baseline,80 min vs. start inhalation,104% and 92%
same,% changes in PAP vs baseline,80 min vs. start inhalation,110% and 96%
same,% changes in BP vs baseline,90 min vs. start inhalation,106% and 95%
same,% changes in PAP vs baseline,90 min vs. start inhalation,110% and 94%
same,% changes in BP vs baseline,100 min vs. start inhalation,107% and 96%
same,% changes in PAP vs baseline,100 min vs. start inhalation,111% and 93%
same,% changes in BP vs baseline,110 min vs. start inhalation,109% and 100%
same,% changes in PAP vs baseline,110 min vs. start inhalation,111% and 93%
same,% changes in BP vs baseline,120 min vs. start inhalation,111% and 107%
same,% changes in PAP vs baseline,120 min vs. start inhalation,112% and 95%
same,% changes in BP vs baseline,130 min vs. start inhalation,111% and 104%
same,% changes in PAP vs baseline,130 min vs. start inhalation,112% and 92%
same,% changes in BP vs baseline,140 min vs. start inhalation,112% and 103%
same,% changes in PAP vs baseline,140 min vs. start inhalation,113% and 93%
same,% changes in BP vs baseline,150 min vs. start inhalation,112% and 107%
same,% changes in PAP vs baseline,150 min vs. start inhalation,113% and 93%
same,% changes in BP vs baseline,160 min vs. start inhalation,112% and 110%
same,% changes in PAP vs baseline,160 min vs. start inhalation,112% and 92%
same,% changes in BP vs baseline,170 min vs. start inhalation,113% and 108%
same,% changes in PAP vs baseline,170 min vs. start inhalation,110% and 92%
same,% changes in BP vs baseline,180 min vs. start inhalation,113% and 108%
same,% changes in PAP vs baseline,180 min vs. start inhalation,112% and 93%
same,% changes in BP vs baseline,190 min vs. start inhalation,113%
same,% changes in PAP vs baseline,190 min vs. start inhalation,111% and 93%
same,% changes in BP vs baseline,200 min vs. start inhalation,112% and 110%
same,% changes in PAP vs baseline,200 min vs. start inhalation,110% and 93%
same,% changes in BP vs baseline,210 min vs. start inhalation,112% and 109%
same,% changes in PAP vs baseline,210 min vs. start inhalation,109% and 93%
same,% changes in BP vs baseline,220 min vs. start inhalation,113%
same,% changes in PAP vs baseline,220 min vs. start inhalation,109% and 96%
same,% changes in BP vs baseline,230 min vs. start inhalation,111% and 112%
same,% changes in PAP vs baseline,230 min vs. start inhalation,109% and 94%
same,% changes in BP vs baseline,240 min vs. start inhalation,110% and 112%
same,% changes in PAP vs baseline,240 min vs. start inhalation,109% and 94%
same,% changes in BP vs baseline,−5 min vs. start inhalation,99% and 96%
same,% changes in PAP vs baseline,−5 min vs. start inhalation,99%
same,lung selectivity with respect to the hemodynamic effect,"inhaled, 30 μg/kg",good lung selectivity
